Experimental data reported in ChEMBL document CHEMBL1201862, “PubChem BioAssay data set” (2004).
Active and inactive are the calls of the source. Cut-off read from the data, not from the text of the source, for most assays here: actives have a measured EC50 and inactives only a lower limit.

Experiments:
[1] = test system: Vero; assay: Vero cell cytotoxicity, cytotoxicity control for flavivirus capping enzyme inhibitors (AID 588742); assay type: functional; details: Chlorocebus sabaeus
[2] = molecular target: T1, Protein skinhead-1 (Caenorhabditis elegans, UniProt P34707); assay type: functional
T1 sequence (P34707 whole entry): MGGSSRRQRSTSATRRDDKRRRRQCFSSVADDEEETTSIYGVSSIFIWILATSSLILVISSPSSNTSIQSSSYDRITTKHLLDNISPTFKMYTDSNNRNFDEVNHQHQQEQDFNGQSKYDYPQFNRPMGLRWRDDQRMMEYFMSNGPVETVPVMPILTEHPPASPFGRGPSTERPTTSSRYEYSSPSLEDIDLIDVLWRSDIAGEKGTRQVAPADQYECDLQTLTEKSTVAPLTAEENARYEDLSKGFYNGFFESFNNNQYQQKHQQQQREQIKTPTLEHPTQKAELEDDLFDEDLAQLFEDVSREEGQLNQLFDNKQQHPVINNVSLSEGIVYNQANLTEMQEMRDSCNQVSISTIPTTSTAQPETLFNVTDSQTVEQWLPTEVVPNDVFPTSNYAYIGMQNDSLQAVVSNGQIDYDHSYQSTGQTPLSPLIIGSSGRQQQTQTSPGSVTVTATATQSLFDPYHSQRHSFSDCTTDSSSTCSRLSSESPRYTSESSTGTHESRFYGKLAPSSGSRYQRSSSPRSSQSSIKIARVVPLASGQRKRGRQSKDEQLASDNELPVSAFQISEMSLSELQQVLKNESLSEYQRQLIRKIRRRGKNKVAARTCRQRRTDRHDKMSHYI

[3] = molecular target: Protein Wnt-3a (Mus musculus, UniProt P27467); assay: Wnt3a-driven reporter signaling inhibition, dose response, selectivity assay for Gli-SUFU antagonist project, Wnt-LIGHT cells, luminescence (AID 651570); assay type: functional; details: read-out: IC50_Mean;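 note: Wnt-LIGHT reporter cells stimulated with conditioned medium from Wnt3a-producing cells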
[4] = molecular target: T2, RNA-binding protein pos-1 (Caenorhabditis elegans, UniProt G5EF15); assay: inhibitors of POS-1/mex-3 RNA binding, dose response, biochemical, fluorescence polarization (AID 1964);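 note: purified POS-1 fused to maltose binding protein made in E. coli; potency of compounds blocking POS-1 binding to fluorescent RNA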
T2 sequence (G5EF15 whole entry): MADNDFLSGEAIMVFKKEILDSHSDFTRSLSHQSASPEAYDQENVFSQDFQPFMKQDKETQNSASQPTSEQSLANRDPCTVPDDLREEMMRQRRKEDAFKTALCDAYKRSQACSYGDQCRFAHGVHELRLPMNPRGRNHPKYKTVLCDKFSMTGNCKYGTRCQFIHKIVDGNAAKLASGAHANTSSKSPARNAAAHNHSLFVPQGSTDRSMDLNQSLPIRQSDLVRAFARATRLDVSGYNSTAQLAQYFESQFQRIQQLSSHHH

[5] = test system: BJ; assay: cytotoxicity toward BJ-TERT fibroblasts, dose response, cell-based, RAS-independent, luminescence (AID 1933); assay type: functional; details: Homo sapiens
[6] = molecular target: T3, Zinc finger protein mex-5 (Caenorhabditis elegans, UniProt Q9XUB2); assay: MEX-5/TCR-2 RNA interaction inhibitors, dose response, biochemical, C. elegans, fluorescence polarization (AID 1960)
T3 sequence (Q9XUB2 whole entry): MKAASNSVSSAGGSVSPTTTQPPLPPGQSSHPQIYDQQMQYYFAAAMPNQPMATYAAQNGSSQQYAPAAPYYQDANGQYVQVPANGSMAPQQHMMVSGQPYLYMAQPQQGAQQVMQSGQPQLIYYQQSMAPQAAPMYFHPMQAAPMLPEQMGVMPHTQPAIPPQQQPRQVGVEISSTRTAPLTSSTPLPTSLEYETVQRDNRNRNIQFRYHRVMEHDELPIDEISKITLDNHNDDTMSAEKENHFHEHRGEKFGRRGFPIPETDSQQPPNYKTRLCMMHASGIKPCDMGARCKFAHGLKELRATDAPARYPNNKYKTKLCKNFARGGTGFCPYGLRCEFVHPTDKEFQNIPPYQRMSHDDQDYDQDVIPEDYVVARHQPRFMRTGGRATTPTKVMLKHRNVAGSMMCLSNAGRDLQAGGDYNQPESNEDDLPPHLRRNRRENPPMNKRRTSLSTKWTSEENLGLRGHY

[7] = test system: BJ; assay: cells; assay type: functional, cell-based; details: Homo sapiens
[8] = test system: BJ; assay: cytotoxicity toward BJ-TERT-LT-ST fibroblasts, dose response, cell-based, RAS-independent, luminescence (AID 1935); assay type: functional; details: Homo sapiens;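 note: BJ fibroblasts immortalized with TERT plus LT and ST oncogenes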
[9] = cytotoxicity toward DRD oncogenic fibroblasts, dose response, cell-based, non-viral oncogenic, luminescence (AID 1934); assay type: functional; details: Homo sapiens
[10] = test system: BJ; assay: cytotoxicity toward Ras-transformed BJeLR fibroblasts, dose response, cell-based, alamar blue fluorescence, cherrypicked samples (AID 2631); assay type: functional; details: Homo sapiens;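 note: confirmatory dose-response assay in RAS-dependent BJ fibroblasts engineered with TERT, LT and ST, with cytotoxicity read by fluorescence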
[11] = molecular target: T4, Sentrin-specific protease 1 (Homo sapiens, UniProt Q9P0U3); assay: potency of human SENP1 inhibitors, dose response, biochemical, kinetic FRET (AID 651697); assay type: functional; details: read-out: IC50_Mean
T4 sequence (Q9P0U3 whole entry): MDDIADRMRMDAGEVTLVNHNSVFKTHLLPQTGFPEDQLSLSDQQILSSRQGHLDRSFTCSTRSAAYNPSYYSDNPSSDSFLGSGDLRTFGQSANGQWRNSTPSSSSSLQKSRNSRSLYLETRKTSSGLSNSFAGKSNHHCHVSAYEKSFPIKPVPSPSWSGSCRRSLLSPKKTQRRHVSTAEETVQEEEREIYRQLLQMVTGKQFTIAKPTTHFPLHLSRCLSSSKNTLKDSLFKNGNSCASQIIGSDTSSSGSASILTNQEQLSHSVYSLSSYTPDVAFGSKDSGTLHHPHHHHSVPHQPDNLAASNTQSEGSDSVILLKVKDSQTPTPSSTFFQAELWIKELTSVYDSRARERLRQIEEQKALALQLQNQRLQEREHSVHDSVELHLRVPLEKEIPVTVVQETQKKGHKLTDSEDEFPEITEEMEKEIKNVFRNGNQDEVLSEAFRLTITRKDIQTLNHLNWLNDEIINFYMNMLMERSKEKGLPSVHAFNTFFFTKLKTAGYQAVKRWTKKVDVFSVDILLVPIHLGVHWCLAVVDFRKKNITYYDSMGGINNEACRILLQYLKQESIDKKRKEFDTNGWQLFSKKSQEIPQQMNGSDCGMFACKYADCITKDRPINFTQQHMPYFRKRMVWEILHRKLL

[12] = molecular target: T4, Sentrin-specific protease 1; assay: Dose response confirmation of small molecule inhibitors of the catalytic domain of the SUMO protease, SENP1 in a FRET assay.; assay type: functional; details: read-out: IC50_Mean
[13] = NIH-3T3 fibroblast cytotoxicity, dose response, cytotoxicity control, cell-based, fluorescence, Alamar Blue, secondary assay (AID 2327); assay type: functional;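 note: NIH-3T3 mouse fibroblasts cultured with fluconazole at 8 µg/mL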
[14] = test system: Streptococcus sp. 'group A'; assay: growth inhibition of control SK(-) GAS strain, dose response, counter-screen for streptokinase expression inhibitor project, luminescence, kanamycin, BacTiterGlo, confirmation (AID 1900); assay type: functional, organism-based
[15] = molecular target: T5, Streptokinase A (Streptococcus pyogenes serotype M1, UniProt P10520); assay: S. pyogenes streptokinase expression inhibitors, potency, dose response, plasminogen activation absorbance, OD405 (AID 1914); assay type: functional, Streptococcus pyogenes M1 GAS;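 note: secreted streptokinase activity via plasminogen activation per viability signal from cell pellet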
T5 sequence (P10520 whole entry): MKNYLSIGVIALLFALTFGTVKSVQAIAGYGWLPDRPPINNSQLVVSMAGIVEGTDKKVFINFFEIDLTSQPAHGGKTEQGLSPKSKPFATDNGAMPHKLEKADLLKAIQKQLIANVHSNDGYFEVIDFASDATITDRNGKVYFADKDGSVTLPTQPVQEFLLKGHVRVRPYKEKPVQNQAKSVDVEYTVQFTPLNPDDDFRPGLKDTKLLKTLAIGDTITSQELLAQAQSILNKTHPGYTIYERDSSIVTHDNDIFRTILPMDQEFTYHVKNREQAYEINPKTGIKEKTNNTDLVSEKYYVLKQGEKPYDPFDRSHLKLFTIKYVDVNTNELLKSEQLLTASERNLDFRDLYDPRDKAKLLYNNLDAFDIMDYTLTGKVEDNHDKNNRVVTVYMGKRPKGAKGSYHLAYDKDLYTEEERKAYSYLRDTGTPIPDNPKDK

[16] = C. albicans growth with fluconazole, confirmation, fluorescence, retest (AID 2467); assay type: functional, cell-based
[17] = microbe, parasite or virus in culture; assay type: functional; details: Mycobacterium tuberculosis
[18] = molecular target: T6, Serine/threonine-protein phosphatase (Candida dubliniensis (strain CD36 / CBS 7987 / NCPF 3949 / NRRLY-17841) (Yeast), UniProt B9W6M3); assay: calcineurin pathway inhibitors in yeast reporter, dose response, S. cerevisiae, CDRE-lacZ, luminescence, secondary (AID 2388); assay type: functional, cell-based;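 note: yeast reporter cells carrying a calcineurin-responsive lacZ construct stimulated with calcium chloride; luminescent beta-galactosidase reporter signal in whole cells rather than isolated phosphatase activity; potency for inhibition where a drop in reporter signal means calcineurin blockade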
T6 sequence (B9W6M3 whole entry): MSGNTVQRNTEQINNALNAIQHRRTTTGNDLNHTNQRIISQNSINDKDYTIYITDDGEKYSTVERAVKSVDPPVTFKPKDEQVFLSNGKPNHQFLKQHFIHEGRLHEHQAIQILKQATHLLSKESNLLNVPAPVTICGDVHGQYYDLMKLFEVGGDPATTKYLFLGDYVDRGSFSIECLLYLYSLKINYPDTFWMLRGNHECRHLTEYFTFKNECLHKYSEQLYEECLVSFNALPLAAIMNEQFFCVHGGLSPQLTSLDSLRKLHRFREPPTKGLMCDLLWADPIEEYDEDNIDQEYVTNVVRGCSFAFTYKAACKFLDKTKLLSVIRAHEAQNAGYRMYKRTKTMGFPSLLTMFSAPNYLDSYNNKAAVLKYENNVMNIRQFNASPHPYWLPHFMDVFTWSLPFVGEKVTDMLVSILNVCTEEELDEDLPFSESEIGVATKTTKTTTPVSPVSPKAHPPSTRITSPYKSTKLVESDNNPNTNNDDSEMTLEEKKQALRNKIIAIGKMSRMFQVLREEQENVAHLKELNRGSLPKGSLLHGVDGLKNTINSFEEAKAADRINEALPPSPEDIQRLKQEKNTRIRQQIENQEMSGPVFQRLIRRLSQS

[19] = test system: Streptococcus; assay: Group A Streptococcus viability loss, dose response, counter-screen for streptokinase expression inhibitor project, luminescence, BacTiterGlo (AID 1915); assay type: functional, organism-based;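 note: potency for reduction of bacterial viability or growth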
[20] = Luminescence Cell-Based Dose Retest to Confirm Inhibitors of Cancer Stem Cells. [Related pubchem assays (depositor defined):AID2717, AID2721]; assay type: functional; details: Homo sapiens
[21] = molecular target: ATP-dependent molecular chaperone HSP82 (Candida albicans (strain WO-1) (Yeast), UniProt C4YTQ8); assay: loss of DOC-induced GRE-beta-galactosidase reporter signal, dose response, Hsp90 inhibitor project, S. cerevisiae, luminescence (AID 2400); assay type: functional, cell-based;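 note: beta-galactosidase luminescence from glucocorticoid response element reporter as proxy for Hsp90 function; inhibitor potency where signal loss means Hsp90 inhibition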
[22] = molecular target: Melanocortin receptor 4 (Homo sapiens, UniProt P32245); assay type: functional, cell-based;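 note: Cell-based assay with luminescence read-out, confirmatory dose-response testing for agonist activity of biased ligands at MC4R; human U2OS cells with tagged receptor and beta-arrestin; potency of agonists that increase receptor coupling to beta-arrestin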
[23] = inhibitors of firefly luciferase expression or activity, dose response, H4 neuroglioma cells, luminescence (AID 1990); assay type: functional, cell-based
[24] = cells; assay type: functional, cell-based
[25] = Luminescence Cell-Based Dose Response HTS to Identify Inhibitors of 5'UTR Stem-Loop Driven Prion Protein mRNA Translation in H4 Neuroglioblastoma Cells. [Related pubchem assays: 1827 (Project Summary), 1813 (Primary HTS)]; assay type: functional
[26] = inhibitors of SNCA 5'UTR-driven reporter translation, confirmation, H4 neuroglioma cells, luminescence (AID 1988); assay type: functional, cell-based
[27] = cells; assay type: functional, cell-based; remark: listed apart in the source
[28] = test system: INS1; assay: beta cell apoptosis inhibitors, cytokine rescue, dose response, luminescence, retest (AID 449756); assay type: functional, cell-based; details: Rattus norvegicus;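 note: cell death triggered by IL-1 beta plus TNF-alpha plus IFN-gamma mixture; protective hits raise ATP signal compared with cytokine alone wells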

ATP-dependent molecular chaperone HSP82, sequence (C4YTQ8 whole entry): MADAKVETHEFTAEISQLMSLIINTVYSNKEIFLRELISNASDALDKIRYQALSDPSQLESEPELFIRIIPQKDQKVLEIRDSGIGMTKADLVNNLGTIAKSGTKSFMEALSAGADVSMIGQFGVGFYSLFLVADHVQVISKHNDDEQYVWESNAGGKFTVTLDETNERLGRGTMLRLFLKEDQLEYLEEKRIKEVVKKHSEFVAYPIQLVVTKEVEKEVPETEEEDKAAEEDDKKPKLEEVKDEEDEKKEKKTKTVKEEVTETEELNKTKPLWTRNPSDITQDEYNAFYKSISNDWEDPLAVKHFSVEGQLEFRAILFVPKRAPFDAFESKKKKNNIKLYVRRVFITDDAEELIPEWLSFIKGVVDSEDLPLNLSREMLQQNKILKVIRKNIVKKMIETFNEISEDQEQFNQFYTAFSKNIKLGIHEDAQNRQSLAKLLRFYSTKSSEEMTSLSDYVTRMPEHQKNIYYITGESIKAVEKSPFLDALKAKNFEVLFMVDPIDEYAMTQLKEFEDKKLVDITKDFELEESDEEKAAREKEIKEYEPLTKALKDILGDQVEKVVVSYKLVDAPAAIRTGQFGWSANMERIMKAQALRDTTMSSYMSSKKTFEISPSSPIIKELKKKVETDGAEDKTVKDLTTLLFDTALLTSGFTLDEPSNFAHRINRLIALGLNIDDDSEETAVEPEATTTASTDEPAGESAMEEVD
Protein Wnt-3a, sequence (P27467 whole entry, the tested form may be a part): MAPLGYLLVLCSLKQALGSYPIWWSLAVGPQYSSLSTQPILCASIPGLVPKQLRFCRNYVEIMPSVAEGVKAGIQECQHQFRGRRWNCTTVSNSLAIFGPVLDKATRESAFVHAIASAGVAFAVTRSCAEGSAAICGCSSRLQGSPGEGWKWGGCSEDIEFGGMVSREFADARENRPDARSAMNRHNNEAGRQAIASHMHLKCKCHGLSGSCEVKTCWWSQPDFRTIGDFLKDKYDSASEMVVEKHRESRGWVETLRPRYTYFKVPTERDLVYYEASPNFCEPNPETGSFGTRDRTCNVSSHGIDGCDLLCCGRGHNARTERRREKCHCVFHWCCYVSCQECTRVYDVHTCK
Melanocortin receptor 4, sequence (P32245 whole entry): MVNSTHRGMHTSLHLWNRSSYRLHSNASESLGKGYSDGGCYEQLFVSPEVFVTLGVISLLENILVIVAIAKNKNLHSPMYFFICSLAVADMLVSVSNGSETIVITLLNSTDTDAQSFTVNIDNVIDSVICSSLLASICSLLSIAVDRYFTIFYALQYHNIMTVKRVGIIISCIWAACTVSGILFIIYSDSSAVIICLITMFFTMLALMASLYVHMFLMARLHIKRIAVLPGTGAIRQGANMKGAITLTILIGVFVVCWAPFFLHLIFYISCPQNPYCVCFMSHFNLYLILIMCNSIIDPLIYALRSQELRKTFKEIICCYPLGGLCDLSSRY

## CCn1c(=O)c(C(=O)CN2CCc3ccccc32)c(N)n(Cc2ccccc2)c1=O
[1]
  CC50: > 40 µM (active)

## CC(=O)Nc1cccc(OCC(=O)/C=C2\N(C)c3ccccc3C2(C)C)c1
[2]
  IC50: > 100 µM (inactive)
[3]
  IC50: 50 µM (inactive)

## COc1ccc(N2C(=O)/C(=C/c3ccc(C)o3)C(=O)NC2=S)cc1
[4]
  EC50: > 300 µM (not active)
[5]
  EC50: > 150 µM (not active)
[6]
  EC50: > 300 µM (not active)
[7]
  EC50: 17 µM (active)
[8]
  EC50: > 75 µM (inconclusive)
[9]
  EC50: 15.9 µM (active)
[10]
  EC50: > 133 µM (inactive)

## O=C1NC(=O)/C(=C/c2c(O)ccc3ccccc23)N1
[11]
  IC50: 6.2 µM (active)
[12]
  IC50: 4.34 µM (active)

## O=C(Nc1nc2ccc(SC(F)F)cc2s1)c1ccc(NS(=O)(=O)c2ccc(F)c(F)c2)cc1
[13]
  EC50: 92.6 µM (active)
[14]
  EC50: 2.68 µM (active)
[15]
  EC50: > 50 µM (not active)
[16]
  EC50: 2.18 µM (active)
[17]
  CC50: 20.1 µM (active)
[18]
  EC50: > 180 µM (inactive)
[19]
  EC50: 2.79 µM (active)
[20]
  AC50: 2.45 µM (active)
[21]
  EC50: > 150 µM (inactive)
[22]
  EC50: > 89.2 µM (inactive)

## C/C(=N\Nc1nc2ccccc2[nH]1)c1ccccn1
[23]
  EC50: 0.306 µM (active)
[5]
  EC50: 0.672 µM (active)
[24]
  EC50: 6.03 µM (active)
[25]
  EC50: 0.154 µM (active)
[26]
  EC50: 0.107 µM (active)
[7]
  EC50: 4.7 µM (active)
[27]
  EC50: 13.8 µM (active)
[8]
  EC50: 1.38 µM (inconclusive)
[9]
  EC50: 2.24 µM (active)
[10]
  EC50: < 0.104 µM (active)
[28]
  AC50: < 0.195 µM (active)
